According to publication PMC9719525, “Design of MMP-1 inhibitors via SAR transfer and experimental validation” (Scientific Reports, 2022):

How the values were obtained:
[1] = molecular target: T1, matrix metalloproteinase 1 (MMP-1) (Homo sapiens, UniProt P03956); test: colorimetric MMP-1 enzyme assay (ENZ BML-AK404-0001 kit, A412nm); assay type: biochemical
T1 construct: gene MMP1
T1 sequence (P03956 100-469): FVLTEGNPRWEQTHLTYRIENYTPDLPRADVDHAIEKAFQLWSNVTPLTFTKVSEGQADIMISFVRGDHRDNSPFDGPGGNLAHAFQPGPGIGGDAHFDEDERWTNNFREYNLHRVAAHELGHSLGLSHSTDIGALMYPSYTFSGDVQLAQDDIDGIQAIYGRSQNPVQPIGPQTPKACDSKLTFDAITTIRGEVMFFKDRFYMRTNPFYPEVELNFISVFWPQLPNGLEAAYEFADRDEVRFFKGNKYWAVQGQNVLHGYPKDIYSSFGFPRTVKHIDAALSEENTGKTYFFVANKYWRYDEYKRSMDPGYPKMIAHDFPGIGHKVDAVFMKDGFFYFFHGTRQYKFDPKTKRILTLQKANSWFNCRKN

[2] = molecular target: T1, matrix metalloproteinase 1 (MMP-1); test: colorimetric MMP-1 enzyme assay; compound previously reported (ref […]), resynthesized here; assay type: biochemical; conditions: cited from earlier work

| IC50 ([1]; read-out: IC50 (μM)^a) | Compound | also measured |
| --- | --- | --- |
| – | COc1ccc([C@]2(C)CCN([C@H](C)C(=O)NO)C2=O)cc1 [compound 5, (R)-N-hydroxy-2-((S)-3-(4-methoxyphenyl)-3-methyl-2-oxopyrrolidin-1-yl)propenamide] | IC50 [1]: 0.36 ± 0.04 µM |
| 0.5 ± 0.023 µM | Cc1ccc([C@]2(C)CCN([C@H](C)C(=O)NO)C2=O)cc1 [compound 7, (R)-N-hydroxy-2-((S)-3-(p-tolyl)-3-methyl-2-oxopyrrolidin-1-yl)propenamide] | – |
| – | C[C@H](C(=O)NO)N1CC[C@@](C)(c2ccc(C(F)(F)F)cc2)C1=O [compound 4] | IC50 [2]: 0.12 ± 0.01 µM |
| 0.034 ± 0.026 µM | C[C@H](C(=O)NO)N1CC[C@@](C)(c2ccc(Cl)cc2)C1=O [compound 6, (R)-N-hydroxy-2-((S)-3-(4-chlorophenyl)-3-methyl-2-oxopyrrolidin-1-yl)propenamide] | – |
